Test results as given in patent US7626031B2, “Substituted 3-(diarylmethylene)indolin-2-ones and methods of their use” (Symphony Evolution, Inc., priority 2002, dated 2009).

Assays:
c-Kit kinase = c-Kit kinase (Homo sapiens, UniProt P10721); assay: c-Kit AlphaScreen kinase assay; format: biochemical
Method: (§1) Kinase activity and compound inhibition are investigated using one or more assay formats. The ATP concentrations for each assay are selected to be close to the Michaelis-Menten constant (KM) for each individual kinase. Dose-response experiments are performed at 10 different inhibitor concentrations in a 384-well plate format. […] Exemplary kinase assays are described below. KDR Assay
c-Kit biochemical activity was assessed using AlphaScreen™ (Perkin Elmer) technology, described above. Test compounds, ATP, biotinylated poly(Glu, Tyr) and c-Kit kinase were combined in a volume of 20 μL in a 384-well white, medium binding microtiter plate (Greiner). Reaction mixtures were incubated for 1 hr at ambient temperature. Reactions were quenched by addition of 10 uL of […] AlphaScreen bead suspension containing 75 mM Hepes, pH 7.4, 300 mM NaCl, 120 mM EDTA, 0.3% BSA and 0.03% Tween-20. After 16 hr incubation at ambient temperature plates were read using an AlphaQuest reader (Perkin Elmer).

EGFR = EGFR (Homo sapiens, UniProt P00533); assay: Kinase assay, EGFR (33P-ATP incorporation or luciferase-coupled ATP consumption); format: biochemical
EGFR, sequence (P00533 25-1210, species assumed): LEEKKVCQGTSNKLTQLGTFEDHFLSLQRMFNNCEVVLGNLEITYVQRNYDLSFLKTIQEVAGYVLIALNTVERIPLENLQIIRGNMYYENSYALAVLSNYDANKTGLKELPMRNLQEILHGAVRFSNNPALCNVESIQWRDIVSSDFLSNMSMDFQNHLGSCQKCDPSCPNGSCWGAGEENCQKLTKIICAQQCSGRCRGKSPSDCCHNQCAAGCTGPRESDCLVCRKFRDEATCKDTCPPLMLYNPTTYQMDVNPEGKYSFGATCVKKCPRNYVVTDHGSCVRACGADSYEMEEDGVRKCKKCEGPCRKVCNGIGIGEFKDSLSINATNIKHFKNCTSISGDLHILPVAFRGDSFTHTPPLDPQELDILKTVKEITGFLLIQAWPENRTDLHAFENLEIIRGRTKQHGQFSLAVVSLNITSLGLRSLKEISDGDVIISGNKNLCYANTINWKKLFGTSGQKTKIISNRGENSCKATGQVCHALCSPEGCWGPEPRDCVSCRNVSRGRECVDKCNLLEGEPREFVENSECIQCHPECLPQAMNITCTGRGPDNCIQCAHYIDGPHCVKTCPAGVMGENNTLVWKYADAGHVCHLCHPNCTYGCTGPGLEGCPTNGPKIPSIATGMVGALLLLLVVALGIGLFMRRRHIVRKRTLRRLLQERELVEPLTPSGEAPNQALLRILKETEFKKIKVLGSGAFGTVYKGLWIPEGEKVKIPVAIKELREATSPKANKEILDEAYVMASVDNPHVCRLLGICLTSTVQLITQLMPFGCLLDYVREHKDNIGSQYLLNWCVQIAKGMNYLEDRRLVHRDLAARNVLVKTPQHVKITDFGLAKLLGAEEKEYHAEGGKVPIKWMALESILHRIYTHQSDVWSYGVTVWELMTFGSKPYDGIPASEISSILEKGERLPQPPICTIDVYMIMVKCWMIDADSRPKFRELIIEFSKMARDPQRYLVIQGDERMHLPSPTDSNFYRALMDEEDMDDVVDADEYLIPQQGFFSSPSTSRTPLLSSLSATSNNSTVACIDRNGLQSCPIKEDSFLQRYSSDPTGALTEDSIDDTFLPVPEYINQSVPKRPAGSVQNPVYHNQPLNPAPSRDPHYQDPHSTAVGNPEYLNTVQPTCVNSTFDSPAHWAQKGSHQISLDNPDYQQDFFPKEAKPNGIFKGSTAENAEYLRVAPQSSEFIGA
Procedure, shortened: (§2)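 Kinase activity measured either by γ-33P ATP incorporation into immobilized substrate (MBP or pEY) with scintillation counting, or by luciferase-based ATP consumption with pEY. Enzyme 10 or 20 nM; ATP near each kinase's KM (e.g. 10 or 30 μM); 1 h at room temperature, 1% DMSO, 10-point dose-response.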

Flt3 = molecular target: T1, Flt3 (Homo sapiens, UniProt P36888); assay: Kinase assay, Flt3; format: biochemical
T1 sequence (P36888 27-993): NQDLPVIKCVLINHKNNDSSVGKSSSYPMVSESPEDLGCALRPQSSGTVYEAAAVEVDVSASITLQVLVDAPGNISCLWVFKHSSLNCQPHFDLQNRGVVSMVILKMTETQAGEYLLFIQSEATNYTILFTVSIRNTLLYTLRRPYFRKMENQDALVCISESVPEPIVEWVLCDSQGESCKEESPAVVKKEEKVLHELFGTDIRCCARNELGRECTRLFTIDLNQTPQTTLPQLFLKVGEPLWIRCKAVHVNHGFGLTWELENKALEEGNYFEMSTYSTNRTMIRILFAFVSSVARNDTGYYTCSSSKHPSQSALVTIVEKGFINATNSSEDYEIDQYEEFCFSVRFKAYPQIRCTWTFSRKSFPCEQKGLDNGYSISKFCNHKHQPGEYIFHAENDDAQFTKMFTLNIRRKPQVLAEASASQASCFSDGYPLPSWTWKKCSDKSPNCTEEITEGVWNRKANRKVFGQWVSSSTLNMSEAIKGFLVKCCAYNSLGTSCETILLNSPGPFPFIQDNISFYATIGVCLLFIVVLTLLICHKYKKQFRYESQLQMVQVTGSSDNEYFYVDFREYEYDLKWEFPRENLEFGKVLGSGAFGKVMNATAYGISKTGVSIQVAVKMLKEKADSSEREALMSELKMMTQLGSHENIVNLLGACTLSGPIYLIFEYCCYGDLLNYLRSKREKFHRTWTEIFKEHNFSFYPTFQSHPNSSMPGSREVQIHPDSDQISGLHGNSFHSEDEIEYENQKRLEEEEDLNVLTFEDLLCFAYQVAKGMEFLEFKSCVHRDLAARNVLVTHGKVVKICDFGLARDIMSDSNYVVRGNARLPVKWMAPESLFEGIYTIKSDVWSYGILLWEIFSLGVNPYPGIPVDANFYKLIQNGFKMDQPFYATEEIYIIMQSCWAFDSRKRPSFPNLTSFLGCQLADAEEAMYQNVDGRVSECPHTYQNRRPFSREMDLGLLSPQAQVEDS
Method: as §1

EphA2 = EphA2 (Homo sapiens, UniProt P29317); assay: Kinase assay, EphA2 (33P-ATP incorporation or luciferase-coupled ATP consumption); format: biochemical
Procedure, shortened: as §2

Fyn = Fyn (Homo sapiens, UniProt P06241); assay: Kinase assay, Fyn; format: biochemical
Fyn, sequence (P06241 whole entry, species assumed): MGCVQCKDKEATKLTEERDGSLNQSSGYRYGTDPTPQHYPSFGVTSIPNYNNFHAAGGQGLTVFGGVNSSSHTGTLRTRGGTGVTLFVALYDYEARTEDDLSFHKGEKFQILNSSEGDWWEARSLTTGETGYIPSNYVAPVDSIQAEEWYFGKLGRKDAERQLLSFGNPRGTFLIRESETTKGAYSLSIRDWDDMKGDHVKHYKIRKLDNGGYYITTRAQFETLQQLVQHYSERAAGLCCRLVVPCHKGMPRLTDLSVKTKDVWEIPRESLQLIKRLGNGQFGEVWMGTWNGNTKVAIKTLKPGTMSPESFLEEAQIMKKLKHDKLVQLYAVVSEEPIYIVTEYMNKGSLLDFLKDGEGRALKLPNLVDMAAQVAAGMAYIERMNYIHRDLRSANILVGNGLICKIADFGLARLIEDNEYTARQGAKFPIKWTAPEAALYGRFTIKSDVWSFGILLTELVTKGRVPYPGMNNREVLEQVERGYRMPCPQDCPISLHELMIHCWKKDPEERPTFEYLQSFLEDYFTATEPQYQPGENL
Method: as §1

IRK = IRK (Homo sapiens, UniProt P06213); assay: Kinase assay, IRK; format: biochemical
IRK, sequence (P06213 28-1382): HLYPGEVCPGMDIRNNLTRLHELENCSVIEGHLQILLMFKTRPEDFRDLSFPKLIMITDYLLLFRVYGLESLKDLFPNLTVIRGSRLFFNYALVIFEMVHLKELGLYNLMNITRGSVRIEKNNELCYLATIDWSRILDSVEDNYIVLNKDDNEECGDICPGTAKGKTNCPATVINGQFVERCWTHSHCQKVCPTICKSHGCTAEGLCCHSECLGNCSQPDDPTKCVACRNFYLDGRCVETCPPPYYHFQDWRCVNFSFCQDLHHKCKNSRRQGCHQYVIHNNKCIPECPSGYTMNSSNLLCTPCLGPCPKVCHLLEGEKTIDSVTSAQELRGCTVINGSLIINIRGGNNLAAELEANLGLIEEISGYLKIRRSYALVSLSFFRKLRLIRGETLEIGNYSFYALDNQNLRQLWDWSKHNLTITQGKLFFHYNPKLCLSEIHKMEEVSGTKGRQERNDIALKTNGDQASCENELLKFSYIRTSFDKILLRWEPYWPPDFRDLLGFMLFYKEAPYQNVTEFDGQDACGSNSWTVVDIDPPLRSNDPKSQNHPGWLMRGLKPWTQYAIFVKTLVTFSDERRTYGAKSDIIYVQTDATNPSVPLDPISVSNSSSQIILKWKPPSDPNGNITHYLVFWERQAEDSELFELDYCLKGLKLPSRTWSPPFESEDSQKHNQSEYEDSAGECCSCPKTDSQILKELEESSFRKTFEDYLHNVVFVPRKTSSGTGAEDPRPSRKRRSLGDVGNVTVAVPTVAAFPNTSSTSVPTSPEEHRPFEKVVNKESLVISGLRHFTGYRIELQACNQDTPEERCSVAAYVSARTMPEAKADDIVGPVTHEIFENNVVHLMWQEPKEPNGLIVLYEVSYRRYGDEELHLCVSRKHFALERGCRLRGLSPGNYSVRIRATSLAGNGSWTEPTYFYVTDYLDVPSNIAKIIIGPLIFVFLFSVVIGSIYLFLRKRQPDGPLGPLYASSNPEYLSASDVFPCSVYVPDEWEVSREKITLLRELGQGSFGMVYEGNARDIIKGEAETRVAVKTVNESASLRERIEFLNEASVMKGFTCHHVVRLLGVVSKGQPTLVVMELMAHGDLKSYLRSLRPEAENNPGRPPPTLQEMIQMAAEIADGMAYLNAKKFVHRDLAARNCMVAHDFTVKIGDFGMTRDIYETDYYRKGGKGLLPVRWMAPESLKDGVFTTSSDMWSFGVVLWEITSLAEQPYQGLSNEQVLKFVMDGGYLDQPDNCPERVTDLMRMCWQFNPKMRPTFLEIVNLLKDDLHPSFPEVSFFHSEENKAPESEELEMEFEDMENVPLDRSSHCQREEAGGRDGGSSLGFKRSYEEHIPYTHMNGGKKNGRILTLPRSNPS
Method: as §1

ALK = ALK (Homo sapiens, UniProt Q9UM73); assay: Kinase assay, ALK (33P-ATP incorporation or luciferase-coupled ATP consumption); format: biochemical
Method: Kinase assays were performed by measurement of incorporation of γ-^33P ATP into immobilized myelin basic protein (MBP). […] Plates were washed 3× with 100 μl TBS. […] Compound dilutions were performed in DMSO and added to assay wells to a final DMSO concentration of 1%. Each data point was measured in duplicate, and at least two duplicate assays were performed for each individual compound determination. Enzyme was added to final concentrations of 10 nM or 20 nM, for example. A mixture of unlabeled ATP and γ-^33P ATP was added to start the reaction (2×10^6 cpm of γ-^33P ATP per well (3000 Ci/mmole) and either 10 μM or 30 μM unlabeled ATP, typically. The reactions were carried out for 1 hour at room temperature with shaking. Plates were washed 7× with TBS, followed by the addition of 50 μl/well scintillation fluid (Wallac). Plates were read using a Wallac Trilux counter. This is only one format of such assays, various other formats are possible, as known to one of ordinary skill in the art.
Tyrosine kinase activity is determined by 1) measurement of kinase-dependent ATP consumption by in the presence of a generic substrate such as, polyglutamic acid, tyrosine, 4:1 (pEY), by luciferase/luciferin-mediated chemiluminescence or; 2) incorporation of radioactive phosphate derived from ^33P-ATP into a generic substrate which has been adsorbed onto the well surface of polystyrene microtiter plates. Phosphorylated substrate products are quantified by scintillation spectrometry.
as §1

FGFR1 = FGFR1 (Homo sapiens, UniProt P11362); assay: Kinase assay, FGFR1 (33P-ATP incorporation or luciferase-coupled ATP consumption); format: biochemical
Procedure, shortened: as §2

PDGFR alpha = PDGFR alpha (Homo sapiens, UniProt P16234); assay: Kinase assay, PDGFR alpha (33P-ATP incorporation or luciferase-coupled ATP consumption); format: biochemical; conditions: read-out: PDGF-R-A IC50
PDGFR alpha, sequence (P16234 24-1089): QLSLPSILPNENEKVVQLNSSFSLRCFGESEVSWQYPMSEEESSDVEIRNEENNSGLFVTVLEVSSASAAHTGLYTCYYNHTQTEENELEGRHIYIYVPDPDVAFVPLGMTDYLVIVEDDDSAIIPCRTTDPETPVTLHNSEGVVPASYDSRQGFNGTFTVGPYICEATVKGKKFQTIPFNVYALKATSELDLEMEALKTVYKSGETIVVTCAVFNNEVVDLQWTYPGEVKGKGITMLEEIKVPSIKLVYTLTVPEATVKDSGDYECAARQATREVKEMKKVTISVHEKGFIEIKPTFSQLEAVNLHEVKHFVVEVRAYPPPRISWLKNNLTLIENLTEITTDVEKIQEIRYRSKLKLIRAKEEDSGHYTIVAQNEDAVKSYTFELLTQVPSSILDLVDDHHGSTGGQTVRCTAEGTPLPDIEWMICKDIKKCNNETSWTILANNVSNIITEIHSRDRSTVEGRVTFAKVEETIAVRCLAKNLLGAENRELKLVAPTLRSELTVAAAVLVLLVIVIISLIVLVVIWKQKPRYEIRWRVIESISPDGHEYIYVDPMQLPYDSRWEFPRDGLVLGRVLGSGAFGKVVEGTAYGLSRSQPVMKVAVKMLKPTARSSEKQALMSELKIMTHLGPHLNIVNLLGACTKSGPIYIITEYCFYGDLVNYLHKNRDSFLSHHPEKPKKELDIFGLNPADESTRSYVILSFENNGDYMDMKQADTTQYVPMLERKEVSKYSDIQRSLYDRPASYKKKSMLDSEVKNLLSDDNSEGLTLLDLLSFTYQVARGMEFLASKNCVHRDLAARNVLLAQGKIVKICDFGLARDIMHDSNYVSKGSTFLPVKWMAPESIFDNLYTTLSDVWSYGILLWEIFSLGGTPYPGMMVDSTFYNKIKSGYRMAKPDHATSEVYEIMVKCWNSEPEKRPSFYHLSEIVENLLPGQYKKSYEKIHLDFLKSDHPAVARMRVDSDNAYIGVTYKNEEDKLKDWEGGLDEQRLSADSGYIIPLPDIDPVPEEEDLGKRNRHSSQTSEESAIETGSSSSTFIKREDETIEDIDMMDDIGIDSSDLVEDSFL
Procedure, shortened: as §2

[1] = molecular target: T2, KDR (baculovirus expressed human KDR kinase domain D807-V1356) (Homo sapiens, UniProt P35968); assay: biochemical
T2 construct: human KDR kinase domain D807-V1356; host or cells: baculovirus expression system
T2 sequence (P35968 807-1356): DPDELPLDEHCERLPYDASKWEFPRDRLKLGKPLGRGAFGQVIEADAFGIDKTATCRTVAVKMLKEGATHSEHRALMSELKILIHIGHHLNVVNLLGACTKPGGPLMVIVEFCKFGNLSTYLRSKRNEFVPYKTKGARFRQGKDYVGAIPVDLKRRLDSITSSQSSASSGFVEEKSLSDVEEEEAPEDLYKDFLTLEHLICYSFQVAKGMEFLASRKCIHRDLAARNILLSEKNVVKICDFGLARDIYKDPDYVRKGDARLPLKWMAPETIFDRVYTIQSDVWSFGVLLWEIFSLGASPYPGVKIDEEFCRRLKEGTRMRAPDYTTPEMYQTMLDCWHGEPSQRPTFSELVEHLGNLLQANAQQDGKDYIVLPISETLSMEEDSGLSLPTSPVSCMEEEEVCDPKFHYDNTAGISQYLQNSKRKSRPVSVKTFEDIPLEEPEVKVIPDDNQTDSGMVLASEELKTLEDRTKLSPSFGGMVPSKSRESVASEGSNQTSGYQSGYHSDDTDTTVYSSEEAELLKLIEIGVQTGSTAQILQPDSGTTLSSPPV
Procedure, shortened: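 Baculovirus human KDR kinase domain (D807–V1356) with ATP near its KM; 10-point dose-response, 4 h at ambient temperature. Activity taken as percent ATP remaining, detected by luciferase–luciferin chemiluminescence.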

IC50 (c-Kit kinase) [nM] | IC50 (EGFR) [nM] | IC50 (Flt3) [nM] | IC50 (EphA2) [nM] | IC50 (Fyn) [nM] | IC50 (IRK) [nM] | IC50 (ALK) [nM] | IC50 (FGFR1) [nM] | IC50 (PDGFR alpha) [nM] | IC50 [1] [nM] | SMILES
< 50 | 50 to 500 | < 50 | 50 to 500 | < 50 | 500 to 5000 | 50 to 500 |  |  |  | CCN1CCC(Nc2ccc3c(c2)/C(=C(\c2cc(F)cc(F)c2)c2nc(C)c[nH]2)C(=O)N3)CC1 [Entry 74, (3Z)-3-[(3,5-difluorophenyl)(4-methyl-1H-imidazol-2-yl)methylidene]-5-[(1-ethylpiperidin-4-yl)amino]-1,3-dihydro-2H-indol-2-one]
< 50 | 50 to 500 |  | 500 to 5000 | < 50 | 500 to 5000 | 50 to 500 | 50 to 500 | < 50 | < 50 | CCN1CCC(Nc2ccc3c(c2)/C(=C(/c2nc(C)c[nH]2)c2ccc(F)cc2F)C(=O)N3)CC1 [Entry 111, (3Z)-3-[(2,4-difluorophenyl)(4-methyl-1H-imidazol-2-yl)methylidene]-5-[(1-ethylpiperidin-4-yl)amino]-1,3-dihydro-2H-indol-2-one]
< 50 | 50 to 500 | < 50 | 500 to 5000 | < 50 | 500 to 5000 |  | < 50 | < 50 | < 50 | CCN1CCC(Nc2ccc3c(c2)/C(=C(/c2ncc[nH]2)c2cc(F)c(Cl)cc2Cl)C(=O)N3)CC1 [Entry 116, (3Z)-3-[(2,4-dichloro-5-fluorophenyl) (1H-imidazol-2-yl)methylidene]-5-[(1-ethylpiperidin-4-yl)amino]-1,3-dihydro-2H-indol-2-one]
< 50 | 50 to 500 | < 50 | 500 to 5000 | < 50 | 500 to 5000 |  | < 50 | < 50 | < 50 | CCN1CCC(Nc2ccc3c(c2)/C(=C(/c2nc(C)c[nH]2)c2cc(F)c(Cl)cc2Cl)C(=O)N3)CC1 [Entry 117, (3Z)-3-[(2,4-dichloro-5-fluorophenyl)(4-methyl-1H-imidazol-2-yl)methylidene]-5-[(1-ethylpiperidin-4-yl)amino]-1,3-dihydro-2H-indol-2-one]
